Active and inactive are the calls of the source. No cut-off for these calls is given here.
Tests used:
Beta-secretase 1 [1] = target: T1, Beta-secretase 1 (Homo sapiens, UniProt P56817)
Description: Inhibition of purified human BACE1 by FRET assay

Cathepsin D = Cathepsin D (Homo sapiens, UniProt P07339)
Description: Inhibition of cathepsin-D (unknown origin)

Rattus norvegicus = assay: Reduction of amyloid beta 40 level in rat plasma at 30 mg/kg, po relative to control; format: functional; parameters: scale not given: the % may be the effect or the level left
in vivo = details: rat, plasma, sc, 10 mg/kg
Beta-secretase 1 [2] = target: T1, Beta-secretase 1; assay: Inhibition of BACE1-mediated amyloid beta 40 production in HEK293-APPswe/lon cells by whole cell assay; format: cell-based
Mus musculus = species on record: Mus musculus; assay: Reduction of cortical amyloid beta 40 level in CRND8-APP mouse model; format: functional, organism-based
Beta-secretase 1 [3] = target: T1, Beta-secretase 1; assay: Inhibition of BACE1-mediated amyloid beta 40 production in HEK293-APPswe/lon cells by whole cell assay in presence of P-gp inhibitor; format: cell-based

Cathepsin D, sequence (P07339 65-162 limits assumed): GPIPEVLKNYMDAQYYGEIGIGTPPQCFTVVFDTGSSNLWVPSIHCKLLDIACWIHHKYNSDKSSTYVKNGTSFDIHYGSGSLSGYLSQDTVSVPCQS
Cathepsin D, sequence (P07339 169-412 limits assumed): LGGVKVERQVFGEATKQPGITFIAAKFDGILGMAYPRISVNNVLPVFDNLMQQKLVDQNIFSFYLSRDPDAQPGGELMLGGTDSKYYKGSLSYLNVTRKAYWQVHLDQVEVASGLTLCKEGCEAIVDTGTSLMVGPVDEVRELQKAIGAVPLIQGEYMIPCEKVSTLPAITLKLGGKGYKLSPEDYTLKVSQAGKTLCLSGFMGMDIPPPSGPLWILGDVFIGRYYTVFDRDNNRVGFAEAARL
T1 sequence (P56817 whole entry): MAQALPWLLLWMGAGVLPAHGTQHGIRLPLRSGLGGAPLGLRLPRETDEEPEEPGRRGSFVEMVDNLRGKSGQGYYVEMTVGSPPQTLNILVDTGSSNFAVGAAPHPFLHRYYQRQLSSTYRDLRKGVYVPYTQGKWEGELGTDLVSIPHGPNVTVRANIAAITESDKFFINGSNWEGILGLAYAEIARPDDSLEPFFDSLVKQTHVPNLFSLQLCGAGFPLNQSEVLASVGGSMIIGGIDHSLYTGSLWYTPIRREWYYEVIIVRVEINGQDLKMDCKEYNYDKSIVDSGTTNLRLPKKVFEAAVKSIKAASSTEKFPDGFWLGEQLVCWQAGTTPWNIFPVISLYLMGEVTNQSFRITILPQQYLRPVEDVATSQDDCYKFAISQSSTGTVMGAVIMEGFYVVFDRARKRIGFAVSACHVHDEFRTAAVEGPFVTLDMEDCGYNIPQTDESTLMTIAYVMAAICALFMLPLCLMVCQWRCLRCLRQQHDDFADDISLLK

CCCNC(=O)N1CCC[C@H](C[C@@]2(CCC3CCCCC3)NC(=N)N(C)C2=O)C1
Ki (Beta-secretase 1 [1]): 8.5 µM
Ki (Cathepsin D): 2.8 µM

CN1C(=N)N[C@](CCC2CCCCC2)(C[C@@H]2CCCN(C(=O)OC(C)(C)C)C2)C1=O
Ki (Beta-secretase 1 [1]): 41 µM
Ki (Cathepsin D): 33 µM

CN1C(=N)N[C@](CCC2CCCCC2)(C[C@H]2CCC[C@@H](NC(=O)Nc3ccc(Cl)cc3)C2)C1=O
Ki (Beta-secretase 1 [1]): 0.01 µM
Ki (Cathepsin D): > 100 µM

COc1ccccc1NC(=O)N[C@@H]1CCC[C@H](C[C@@]2(CCC3CCCCC3)NC(=N)N(C)C2=O)C1
Ki (Beta-secretase 1 [1]): 0.276 µM
Ki (Cathepsin D): 2.4 µM

CN1C(=N)N[C@](CCC2CCCCC2)(C[C@H]2CCC[C@@H](NC(=O)Nc3ccc(C#N)cc3)C2)C1=O
Ki (Beta-secretase 1 [1]): 0.003 µM
Ki (Cathepsin D): 6.9 µM

COc1ccc(NC(=O)N[C@@H]2CCC[C@H](C[C@@]3(CCC4CCCCC4)NC(=N)N(C)C3=O)C2)cc1
Ki (Beta-secretase 1 [1]): 0.01 µM
Ki (Cathepsin D): 2.5 µM

CN1C(=N)N[C@](CCC2CCCCC2)(C[C@H]2CCC[C@@H](NC(=O)NC3CCCCC3)C2)C1=O
Ki (Beta-secretase 1 [1]): 0.138 µM
Ki (Cathepsin D): 6 µM

CCCCCN1CCC[C@H](C[C@@]2(CCC3CCCCC3)NC(=N)N(C)C2=O)C1
Ki (Beta-secretase 1 [1]): 7.6 µM
Ki (Cathepsin D): > 100 µM

CN1C(=N)N[C@](CCC2CCCCC2)(C[C@H]2CCC[C@@H](NCC3CC3)C2)C1=O
Ki (Beta-secretase 1 [1]): 0.48 µM
Ki (Cathepsin D): 53.3 µM

CCCCC(=O)N1CCC[C@H](C[C@@]2(CCC3CCCCC3)NC(=N)N(C)C2=O)C1
Ki (Beta-secretase 1 [1]): 3.2 µM
Ki (Cathepsin D): 44 µM

CN1C(=N)N[C@](CCC2CCCCC2)(C[C@H]2CCC[C@@H](NC(=O)Nc3cnc4ccccc4n3)C2)C1=O
Ki (Beta-secretase 1 [1]): 0.014 µM
Ki (Cathepsin D): 7.5 µM

CCCCC(=O)N1CC[C@@H](C[C@@]2(CCC3CCCCC3)NC(=N)N(C)C2=O)C1
Ki (Beta-secretase 1 [1]): 17.4 µM

CCCCC(=O)N1CC[C@H](C[C@@]2(CCC3CCCCC3)NC(=N)N(C)C2=O)C1
Ki (Beta-secretase 1 [1]): 0.49 µM
Ki (Cathepsin D): 23 µM

CCCCS(=O)(=O)N1CCC[C@H](C[C@@]2(CCC3CCCCC3)NC(=N)N(C)C2=O)C1
Ki (Beta-secretase 1 [1]): 6.3 µM
Ki (Cathepsin D): 25.5 µM

CN1C(=N)N[C@](CCC2CCCCC2)(C[C@@H]2CCCNC2)C1=O
Ki (Beta-secretase 1 [1]): 66 µM
Ki (Cathepsin D): > 100 µM

CN1C(=N)N[C@](CCC2CCCCC2)(C[C@H]2CCC[C@@H](NC(=O)Cc3ccccc3)C2)C1=O
Ki (Beta-secretase 1 [1]): 0.585 µM
Ki (Cathepsin D): 3.5 µM

CN1C(=N)N[C@](CCC2CCCCC2)(C[C@H]2CCC[C@@H](NC(=O)Nc3ccccc3Cl)C2)C1=O
Ki (Beta-secretase 1 [1]): 0.301 µM
Ki (Cathepsin D): 8.5 µM

CCCCC(=O)N1CCC[C@@H](C[C@@]2(CCC3CCCCC3)NC(=N)N(C)C2=O)C1
Ki (Beta-secretase 1 [1]): 17 µM
Ki (Cathepsin D): 28 µM

CN1C(=N)N[C@](CCC2CCCCC2)(C[C@H]2CCCN(C(=O)CC3CCCC3)C2)C1=O
Ki (Cathepsin D): 0.87 µM

CN1C(=N)N[C@](CCC2CCCCC2)(C[C@H]2CCC[C@@H](NC3CCCCC3)C2)C1=O
Ki (Beta-secretase 1 [1]): 0.23 µM
Ki (Cathepsin D): 63.5 µM

CN1C(=N)N[C@](CCC2CCCCC2)(C[C@@H]2CCCN(C(=O)CC3CCCC3)C2)C1=O
Ki (Cathepsin D): 8.5 µM

CN1C(=N)N[C@](CCC2CCCCC2)(C[C@H]2CCC[C@@H](NC(=O)Nc3ccc4ccccc4n3)C2)C1=O
Ki (Beta-secretase 1 [1]): 0.022 µM
Activity (Rattus norvegicus): 55%
Ki (Cathepsin D): 25 µM
AUC(0-t) at 6 h (in vivo): 0.306 µM·h
EC50 (Beta-secretase 1 [2]): 0.258 µM
Activity (Mus musculus): inactive
EC50 (Beta-secretase 1 [3]): 0.11 µM

CN1C(=N)N[C@](CCC2CCCCC2)(C[C@H]2CCC[C@@H](NC(=O)c3ccccc3)C2)C1=O
Ki (Beta-secretase 1 [1]): 0.13 µM
Ki (Cathepsin D): 3.8 µM

CN1C(=N)N[C@](CCC2CCCCC2)(C[C@H]2CCCNC2)C1=O
Ki (Beta-secretase 1 [1]): 8.5 µM
Ki (Cathepsin D): > 100 µM

CN1C(=N)N[C@](CCC2CCCCC2)(C[C@H]2CCCN(C(=O)OC(C)(C)C)C2)C1=O
Ki (Beta-secretase 1 [1]): 29 µM
Ki (Cathepsin D): > 100 µM

Source: ChEMBL document CHEMBL3352601, “Discovery of potent iminoheterocycle BACE1 inhibitors” (Bioorg Med Chem Lett, 2014)
